Experimental data published in patent US11634466B2, “Musclin peptides and methods of use thereof” (UNIVERSITY OF IOWA RESEARCH FOUNDATION, priority 2016, dated 2023).

Key:
Assay type in all cases: cell-based
OPA1 mRNA = OPA1 mRNA normalized to HPRT by PCR in myotube culture; settings: n=3
Method: RNA isolation and quantitative reverse transcriptase polymerase chain reaction (qRT-PCR): Total RNA from mouse tissues and primary myocytes was isolated using RNeasy RNA Isolation Kit (Qiagen). A 1 μg primary myocyte or tissue RNA sample was used to synthesize cDNA in 50 μl reactions using Oligo(dT) as primer and SuperScript III Reverse Transcriptase (Invitrogen). Quantitative real-time PCR was performed on Mastercycler epgradient S (Eppendorf) using SYBR green based PCR reactions. For quantitative RT-PCR, 1 μl of reverse transcription reaction was mixed with 10 pmoles each specific primer and 12.5 μl SYBR PCR Master Mix (BioRad). The reaction was incubated for 40 cycles consisting of denaturation at 95° C. for 10 s and annealing/extension at 59.9° C.—for musclin, HPRT, Nrf2, 56° C.—for PGC1α, Tfam, Nrf1, for 1 min. The quality of the PCR product was routinely checked by a thermal denaturation curve following the qPCR reactions. The threshold cycle (CT) was determined by Realplex2 software (Eppendorf), and quantification of relative mRNA levels was performed by relative mRNA levels was performed by ΔΔCT method. […]

[1] = system: musclin mRNA in murine cultured primary myoblasts; assay: Musclin mRNA normalized to HPRT in murine cultured primary myoblasts
Method: (§1) RNA isolation and quantitative reverse transcriptase polymerase chain reaction (qRT-PCR): Total RNA from mouse tissues and primary myocytes was isolated using RNeasy RNA Isolation Kit (Qiagen). A 1 μg primary myocyte or tissue RNA sample was used to synthesize cDNA in 50 μl reactions using Oligo(dT) as primer and SuperScript III Reverse Transcriptase (Invitrogen). Quantitative real-time PCR was performed on Mastercycler epgradient S (Eppendorf) using SYBR green based PCR reactions. For quantitative RT-PCR, 1 μl of reverse transcription reaction was mixed with 10 pmoles each specific primer and 12.5 μl SYBR PCR Master Mix (BioRad). The reaction was incubated for 40 cycles consisting of denaturation at 95° C. for 10 s and annealing/extension at 59.9° C.—for musclin, HPRT, Nrf2, 56° C.—for PGC1α, Tfam, Nrf1, for 1 min. The quality of the PCR product was routinely checked by a thermal denaturation curve following the qPCR reactions. The threshold cycle (CT) was determined by Realplex2 software (Eppendorf), and quantification of relative mRNA levels was performed by ΔΔCT method. The primers used in this study are HPRT: HPRTF—GGACCTCTCGAAGTGTTGGATAC (SEQ ID NO: 16), HPRTR—GCTCATCTTAGGCTTTGTATTTGGCT (SEQ ID NO: 17); musclin: MuscF-TGTGGACTTAGCATCACAGG (SEQ ID NO: 18), MuscR-AGC TGA GAG TCT GTC AAG G (SEQ ID NO: 19); PGC1α: PGC1aF-TGATGTGAATGACTTGGATACAGACA (SEQ ID NO: 20), PGC1αR-GCTCATTGTTGTACTGGTTGGATATG (SEQ ID NO: 21); TfamF—GGAATGTGGAGCGTGCTAAAA (SEQ ID NO: 22), TfamR—TGCTGGAAAAACACTTCGGAATA (SEQ ID NO: 23); Nrf1F—CGC AGC ACC TTT GGA GAA (SEQ ID NO: 24, Nrf1R—CCCGACCTGTGGAATACTTG (SEQ ID NO: 25); Nrf2F—CAG CTC AAG GGC ACA GTG C (SEQ ID NO: 26), Nrf2R—GTG GCC CAA GTC TTG CTC C (SEQ ID NO: 27).
(§2) Mouse primary myoblasts were isolated from gastrocnemius muscle of 4-6 weeks old mice. Fresh muscle tissue was digested with 2 mg/ml collagenase II in DMEM-F12 for 1.5 h at 37° C.; then 30 min at 37° C. with 1 mg/ml collagenase II and 0.5 mg/ml dispase in DMEM-F12. Tissue was ground and passed through a 100 μm then 70 μm cell strainer and spun at 1000 rpm for 10 min. Myoblasts were resuspended in DMEM-F12 supplemented with 20% FBS, 40 ng/ml bFGF, non-essential amino acids, 1 mM β-mercaptoethanol. Cells were plated on matrigel coated dishes. Cells were maintained in DMEM-F12 supplemented with 20% FBS, 10 ng/ml bFGF, non-essential amino acids, 1 mM β-mercaptoethanol until 80% confluent. Then they were differentiated in DMEM-F12 supplemented with 2% FBS and insulin-transferrin-selenium for 10 days. Human skeletal myoblast primary culture (lot #SLSK002, Zenbio, Research Triangle Park, NC) was maintained according to the supplier's manual.

[2] = system: musclin mRNA in human cultured primary myoblasts; assay: Musclin mRNA normalized to HPRT in human cultured primary myoblasts
Method: as §1, §2

[3] = system: Akt and FOXO1 phosphorylation in cultured murine primary myoblasts; assay: Akt and FOXO1 phosphorylation by western blot in primary myoblasts with Ca2+ ionophore; settings: 1 μM ionophore, 1 mM Ca2+, n=4
Method: Western blotting: Whole cell protein extracts were prepared by homogenizing skeletal muscle tissue in NaCl 150 mM, Tris-HCl 50 mM (pH 7.8), supplemented with 1.5% Triton X-100, protease and phosphatase inhibitors (Roche). Nuclear extracts were obtained using the Subcellular Protein Fractionation Kit for Tissues (Thermo Scientific).
Electrophoresis was performed on 3-8% gradient Nu-Page Tris-Acetate or 10% Nu-Page Bis-Tris gels and transferred to 0.2 μm Sequi-Blot PVDF membranes (Bio-Rad). The membranes were blotted with total AKT1 and phospho-AKT1([…], T308, Cell Signaling), FOXO1 (Cell Signaling), total OXPHOS (rodent, Abcam), musclin (custom rabbit IgG produced against partial mouse musclin sequence NH2-sfsgfgspldrlsagsvehrgkqrkavdhskkr-COOH (SEQ ID NO: 4), corresponding to amino acids 80-112, Gen Bank ID: AAS87598.1, Anaspec, Fremont, Calif.), and GAPDH (Santa Cruz Biotechnologies) antibodies. Densitometric analysis of western blots was performed using Adobe Photoshop (Adobe Systems, San Jose, Calif.).
as §2

[4] = system: cGMP production in murine primary myoblasts; assay: cGMP production in skeletal myoblast culture exposed to ANP and musclin; settings: n=3
Method: Cyclic GMP levels were measured using cyclicGMP EIA kit (Cayman Chemical Company, Ann Arbor, Mich.). Mice were exercised for 5 days, 12 m/min, 45 min before tissue collection. At the day of the experiment mice were exercised 12 m/min, 20 min, sedated with isoflurane and gastrocnemius muscle tissue was collected. Cyclic nucleotides were extracted using 5% trichloracetic acid. Samples were acetylated and used for cGMP level measurements according to the manufacturer's protocol.
as §2

[5] = 0.5 μM ionophore, 1.0 mM Ca2+, n=3
[6] = 1 μM ionophore, 1.0 mM Ca2+, n=3

For Nc1nc2c(nc(Br)n2[C@@H]2O[C@@H]3COP(=O)(O)O[C@H]3[C@H]2O)c(=O)[nH]1 [8-Br-cGMP], the “OPA1 mRNA normalized to HPRT” value (OPA1 mRNA; 8-Br-cGMP) was 5.61±0.36.
CNc1ccc2oc(C[C@H]3O[C@@]4(CC[C@H]3C)O[C@H]([C@H](C)C(=O)c3ccc[nH]3)[C@H](C)C[C@H]4C)nc2c1C(=O)O [A23187] was tested, and the “musclin mRNA” value [1, 5] was 2.20±0.06 AU, the “musclin mRNA” value [1, 6] was 3.60±0.81 AU and the “musclin mRNA” value ([1]; ionophore with removal of extracellular Ca2+ from the medium, n=3, p=NS vs. control) was 0.96±0.012 AU. The “musclin mRNA” value [2, 5] was 3.02±0.23 AU, the “musclin mRNA” value ([2]; 0.5 μM ionophore, Ca2+-free buffer, n=3, p=NS) was 0.74±0.18 AU and the “musclin mRNA” value [2, 6] was 3.95±0.83 AU. For the same molecule, the “musclin mRNA” value ([2]; 1 μM ionophore, Ca2+-free buffer, n=3, p=NS) was 0.79±0.18 AU, the p-Akt/GAPDH [3] was 0.91±0.05 and the “pAkt/total Akt” value [3] was 0.66±0.03. The pFOXO1/GAPDH [3] was 0.39±0.04 and the “pFOXO1/total FOXO1” value [3] was 0.27±0.03.
For CC[C@H](C)[C@@H]1NC(=O)[C@H](CCCNC(=N)N)NC(=O)[C@H](CC(=O)O)NC(=O)[C@H](CCSC)NC(=O)[C@H](CCCNC(=N)N)NC(=O)CNC(=O)CNC(=O)[C@H](Cc2ccccc2)NC(=O)[C@@H](NC(=O)[C@H](CO)NC(=O)[C@H](CO)NC(=O)[C@H](CCCNC(=N)N)NC(=O)[C@H](CCCNC(=N)N)NC(=O)[C@H](CC(C)C)NC(=O)[C@@H](N)CO)CSSC[C@@H](C(=O)N[C@@H](CC(N)=O)C(=O)N[C@@H](CO)C(=O)N[C@@H](Cc2ccccc2)C(=O)N[C@@H](CCCNC(=N)N)C(=O)N[C@@H](Cc2ccc(O)cc2)C(=O)O)NC(=O)CNC(=O)[C@H](CC(C)C)NC(=O)CNC(=O)[C@H](CO)NC(=O)[C@H](CCC(N)=O)NC(=O)[C@H](C)NC(=O)CNC1=O [ANP, atrial natriuretic peptide, reference compound], the “OPA1 mRNA normalized to HPRT” value (OPA1 mRNA; ANP 5 μM) was 4.21±0.24, the cGMP production ([4]; 1 μM ANP) was 3.491±0.057 fmol/μg protein and the cGMP production ([4]; 5 μM ANP) was 6.046±0.074 fmol/μg protein.
For O=c1[nH]c2ccccc2n1C1CCN(Cc2ccc(-c3nc4cc5[nH]cnc5cc4nc3-c3ccccc3)cc2)CC1 [Akt inhibitor-viii], the “musclin mRNA” value ([1]; myoblasts pre-treated with Akt inhibitor-viii before Ca2+ ionophore, n=3, p=NS vs. control) was 1.09±0.03 AU.
